Where “and” joins values, the source holds several entries; their conditions need not be identical. Equal entries are not always repeated.
Columns and labels:
Type in all cases: in vivo, human
[1] = tested on: healthy, cyclic women; experiment: Serum FSH, LH, estradiol (E2) and progesterone (P) concentrations during treatment
Description: The tablets prepared in Example 1 were tested in a single-center, open-label, adaptive design study to evaluate the influence on hormonal and ovarian function and vaginal bleeding pattern of different higher dosages of LNG administered once daily for 28 days over two consecutive treatment cycles in healthy, cyclic women.
Subjects started study medication intake on the first day of menstrual bleeding after the pre-treatment cycle. One tablet was taken orally, around the same time every morning, during 56 consecutive days. Study visits were planned every three (±1) days from treatment day 3 (±1) until 27 (±1) and from day 31 (±1) until day 55 (±1). At each visit the diameter of the largest follicle-like structure (FLS) and serum follicle-stimulating hormone (FSH), luteinizing hormone (LH), estradiol (E2) and P concentrations were measured.
(§1) If ovulation was observed during treatment, the subsequent luteal phase was evaluated using the Landgren criterion, i.e. the luteal phase was considered adequate when P concentrations were >16 nmol/L during at least 5 days (Landgren et al., “Hormonal effects of the 300 μg norethisterone (NET) minipill. 1. Daily steroid levels in 43 subjects during a pretreatment cycle and during the second month of NET administration,” Contraception 1980; 21: pp. 87-113). TVUS measurements of the diameter of the largest FLS (mean of two directions) were performed using a Voluson E8 Expert device (GE Medical Systems). Serum FSH, LH, E2, P and SHBG concentrations were determined by validated chemiluminescent microparticle immunoassays (Abbott, Longford, Ireland). All pharmacodynamic parameters were evaluated descriptively.

[2] = tested on: healthy, cyclic women; experiment: Serum SHBG concentrations
Description: Serum SHBG concentrations were determined after ovulation in the pre-treatment cycle, on treatment day 55 (±1) and at the end-of-study examination. Multiple-dose PK parameters were investigated in approximately 15 subjects per dose group, 5 of them having a BMI≥30 kg/m^2. Blood samples for LNG determination were taken on treatment day 55 (±1) pre-dose and 0.5, 1, 2, 3, 4, 6 and 24 hours after dosing.
as §1

[3] = tested on: healthy, cyclic women; experiment: Adverse events and tolerability
Description: At every visit, the subjects were questioned for adverse events and use of concomitant medication. Safety laboratory and pregnancy tests were performed at regular intervals during the study. Physical examinations were performed at screening and end of study.

[4] = LNG 0.115 mg per day, BMI < 30 kg/m^2, entire treatment period
[5] = LNG 0.115 mg per day, BMI ≥ 30 kg/m^2, entire treatment period
[6] = LNG 0.115 mg per day, entire treatment period
[7] = LNG 0.115 mg per day, treatment period 1
[8] = LNG 0.115 mg per day, treatment period 2
[9] = LNG 0.135 mg per day, BMI < 30 kg/m^2, entire treatment period
[10] = LNG 0.135 mg per day, BMI ≥ 30 kg/m^2, entire treatment period
[11] = LNG 0.135 mg per day, entire treatment period
[12] = LNG 0.135 mg per day, treatment period 1
[13] = LNG 0.135 mg per day, treatment period 2
[14] = LNG 0.095 mg per day, end of study (on average 22 days after last treatment)
[15] = LNG 0.095 mg per day, treatment day 55 ± 1
[16] = LNG 0.115 mg per day, end of study (on average 22 days after last treatment)
[17] = LNG 0.115 mg per day, treatment day 55 ± 1
[18] = LNG 0.135 mg per day, end of study (on average 22 days after last treatment)
[19] = LNG 0.135 mg per day, treatment day 55 ± 1

C#C[C@]1(O)CC[C@H]2[C@@H]3CCC4=CC(=O)CC[C@@H]4[C@H]3CC[C@@]21CC (racemic) [LNG, levonorgestrel]
Maximum E2 concentration, Mean ± SD [1, 4]: 611 ± 623 pmol/L | Mean E2 concentration, Mean ± SD [1, 4]: 213 ± 160 pmol/L | Maximum E2 concentration, Mean ± SD [1, 5]: 607 ± 116 pmol/L | Mean E2 concentration, Mean ± SD [1, 5]: 242 ± 66 pmol/L | Maximum E2 concentration, Mean ± SD [1, 6]: 610 ± 559 pmol/L | Maximum E2 concentration, Median [1, 6]: 511 pmol/L | Mean E2 concentration, Mean ± SD [1, 6]: 219 pmol/L and 219 ± 146 pmol/L | Mean E2 concentration, Median [1, 6]: 186 pmol/L | Maximum E2 concentration, Mean ± SD [1, 7]: 563 ± 551 pmol/L | Maximum E2 concentration, Median [1, 7]: 481 pmol/L | Mean E2 concentration, Mean ± SD [1, 7]: 269 ± 217 pmol/L | Mean E2 concentration, Median [1, 7]: 244 pmol/L | Maximum E2 concentration, Mean ± SD [1, 8]: 367 ± 278 pmol/L | Maximum E2 concentration, Median [1, 8]: 215 pmol/L | Mean E2 concentration, Mean ± SD [1, 8]: 170 ± 88 pmol/L | Mean E2 concentration, Median [1, 8]: 146 pmol/L | Maximum E2 concentration, Mean ± SD [1, 9]: 415 ± 244 pmol/L | Mean E2 concentration, Mean ± SD [1, 9]: 178 ± 72 pmol/L | Maximum E2 concentration, Mean ± SD [1, 10]: 421 ± 332 pmol/L | Mean E2 concentration, Mean ± SD [1, 10]: 190 ± 87 pmol/L | Maximum E2 concentration, Mean ± SD [1, 11]: 416 ± 256 pmol/L | Maximum E2 concentration, Median [1, 11]: 279 pmol/L | Mean E2 concentration, Mean ± SD [1, 11]: 180 pmol/L and 180 ± 73 pmol/L | Mean E2 concentration, Median [1, 11]: 144 pmol/L | Maximum E2 concentration, Mean ± SD [1, 12]: 369 ± 245 pmol/L | Maximum E2 concentration, Median [1, 12]: 239 pmol/L | Mean E2 concentration, Mean ± SD [1, 12]: 198 ± 100 pmol/L | Mean E2 concentration, Median [1, 12]: 156 pmol/L | Maximum E2 concentration, Mean ± SD [1, 13]: 302 ± 184 pmol/L | Maximum E2 concentration, Median [1, 13]: 242 pmol/L | Mean E2 concentration, Mean ± SD [1, 13]: 162 ± 62 pmol/L | Mean E2 concentration, Median [1, 13]: 148 pmol/L | Subjects with mean E2 concentrations ≥110 pmol/L (30 pg/mL) ([1]; all dosages (0.095, 0.115, 0.135 mg per day)): 80-90% | Mean E2 concentrations in all subjects ([1]; all dosages, except in one subject in the 0.115 mg group, 73.4 pmol/L = 20 pg/mL): > 73.4 pmol/L | Individual P concentrations during treatment ([1]; all groups, except 2 ovulating subjects (0.095 mg), the subject with abnormal ovulation (0.135 mg) and one other subject): below 5 nmol/L | Individual LH concentrations ([1]; all groups, except for an LH peak in one ovulating subject in the 0.095 mg group): below 12.1 IU/L | Mean E2 concentrations in all LNG treatment groups ([1]; all treatment groups, 110 pmol/L (30 pg/mL) = lower limit assumed not to lead to accelerated bone loss): above 110 pmol/L | Single P concentration in another subject ([1]; first treatment visit, probably a residue from the pre-treatment cycle, dose group not stated): 5.85 nmol/L | SHBG, Mean ± SD [2, 14]: 49.9 ± 17.4 nmol/L | SHBG, Median [2, 14]: 47.7 nmol/L | SHBG, Mean ± SD [2, 15]: 27.7 ± 10.6 nmol/L | SHBG, Median [2, 15]: 25.5 nmol/L | SHBG, Mean ± SD [2, 16]: 48.1 ± 20.1 nmol/L | SHBG, Median [2, 16]: 46.7 nmol/L | SHBG, Mean ± SD [2, 17]: 23.9 ± 12.1 nmol/L | SHBG, Median [2, 17]: 18.9 nmol/L | SHBG, Mean ± SD [2, 18]: 58.6 ± 28.5 nmol/L | SHBG, Median [2, 18]: 47.8 nmol/L | SHBG, Mean ± SD [2, 19]: 24.0 ± 9.5 nmol/L | SHBG, Median [2, 19]: 23.7 nmol/L | Suppression of SHBG concentrations ([2]; all treatment groups, end of treatment period 2): approximately 60% | n acne events, possibly IMP related ([3]; 0.095 mg LNG, n subjects 30): 3 | n acne events, possibly IMP related ([3]; 0.115 mg LNG, n subjects 29): 4 | n acne events, possibly IMP related ([3]; 0.135 mg LNG, n subjects 29): 4 | Tolerability of the study medication ([3]; LNG 0.095, 0.115 or 0.135 mg per day for 56 days): well tolerated
